Assay results published in patent US4698347A, “Octahydro-oxazolo[4,5-g]quinolines derivatives and decahydro quinoline intermediates and their use as dopamine D-2 agonists” (Eli Lilly and Company, priority 1986, dated 1987).
Several values for one entry are separate records, joined by “and”; a condition that tells them apart may be missing. Equal entries are not always repeated.

Experiments:
[1] = system: spontaneously hypertensive rats (SHR); experiment: Blood pressure and heart rate in anesthetized spontaneously hypertensive rats (SHR), i.v.; type: in vivo, rat; conditions: for % change in BP (mean arterial blood pressure ± standard error) / % change in heart rate (± standard error): four rats
Protocol: The compounds of this invention I, and III are effective in the treatment of hypertension.
Adult male spontaneously hypertensive rats (SHR) (Taconic Farms, Germantown, N.Y.), weighing approximately 300 g. were anesthetized with pentobarbital sodium (60 mg./kg., i.p.). The trachea was cannulated and SHR respired room air. Pulsatile arterial blood pressure was measured from a cannulated carotid artery using a Statham transducer (P23 ID). Mean arterial blood pressure was calculated as diastolic blood pressure plus 1/3 pulse pressure. Cardiac rate was monitored by a cardiotachometer which was triggered by the systolic pressure pulse. Drug solutions were administered i.v. through a catheter placed in a femoral vein. Arterial blood pressure and cardiac rate were recorded on a multichannel oscillograph (Beckman, Model R511A). Fifteen minutes were allowed to elapse following surgery for equilibration of the preparation.
In the table, column 1 gives the name of the drug, column 2 dose in μg/kg, column 3 percent change in mean arterial blood pressure plus or minus standard error and column 4, percent change in heart rate plus or minus standard error. Four rats were used at each dose level.

[2] = system: apomorphine binding sites; experiment: Inhibition of 3H-apomorphine binding (vs spiperone sites); conditions: printed as 40 to 1
Text: With trans-(±)-2-methyl-5-n-propyl-4,4a,5,6,7,8,8a,9-octahydrooxazolo[4,5-g]quinoline; the ratio of binding, to apomorphine sites vs spiperone sites is 40 to 1.

SMILES	% change in BP (mean arterial blood pressure ± standard error) ([1]; dose 1 μg/kg) [%]	% change in heart rate (± standard error) ([1]; dose 1 μg/kg) [%]	% change in BP (mean arterial blood pressure ± standard error) ([1]; dose 10 μg/kg) [%]	% change in heart rate (± standard error) ([1]; dose 10 μg/kg) [%]	Duration of change in BP ([1]; dose 100 μg/kg)	% change in BP (mean arterial blood pressure ± standard error) ([1]; dose 100 μg/kg) [%]	% change in heart rate (± standard error) ([1]; dose 100 μg/kg)	Duration of change in BP ([1]; dose 1000 μg/kg)	% change in BP (mean arterial blood pressure ± standard error) ([1]; dose 1000 μg/kg) [%]	% change in heart rate (± standard error) ([1]; dose 1000 μg/kg) [%]	ratio of binding, to apomorphine sites vs spiperone sites [2]	% change in BP (mean arterial blood pressure ± standard error) ([1]; dose 0.1 μg/kg) [%]	% change in heart rate (± standard error) ([1]; dose 0.1 μg/kg) [%]
CCCN1CCC[C@H]2Cc3nc(C)oc3C[C@@H]21 (racemic) [Trans-(±)-2-methyl-5-n-propyl-4,4a,5,6,7,8,8a,9-octahydro-oxazolo[4,5-g]quinoline]	-3.2 ± 0.5	-2.4 ± 0.8	-7.0 ± 1.0	-2.8 ± 0.4	* (Duration of 15 min or greater)	-19.6 ± 1.4	-16.1 ± 7.6%	* (Duration of 15 min or greater)	-26.2 ± 4.3	-23.6 ± 4.4	40	–	–
CCCN1CCC[C@H]2Cc3ncoc3C[C@@H]21 (racemic) [trans-(±)-5-n-propyl-4,4a,5,6,7,8,8a,9-octahydro-oxazolo[4,5-g]quinoline]	-5.0 ± 1.2	-3.6 ± 0.5	-10.2 ± 1.0	-4.6 ± 0.6	* (Duration of 15 min or greater)	-27.4 ± 20	-28.5 ± 2.6%	* (Duration of 15 min or greater)	-37.7 ± 4.9	-31.8 ± 3.7	–	–	–
CCCN1CCC[C@H]2Cc3nc(N)oc3C[C@@H]21 (racemic) [Trans-(±)-2-amino-5-n-propyl-4,4a,5,6,7,8,8a,9-octahydro-oxazolo[4,5-g]quinoline]	-8.6 ± 1.6	-4.4 ± 0.9	-15.1 ± 1.1	-5.6 ± 0.7	* (Duration of 15 min or greater)	–	-17.5 ± 2.3% and -19.1 ± 3.4%	–	–	–	–	-18.3 ± 5.7	-8.5 ± 2.2
